In PubChem BioAssay AID248 (DTP/NCI, 2004):
Where “and” joins values, the source holds several entries; their conditions need not be identical. Identical values can stand only once. Inconclusive results and toxic doses are left out. Cut-off read from the data, not from the text of the source: active = T/C of 150% or more; inactive = T/C below 125%.

Tested on: L1210 leukemia ip in BDF1 mice, survival T/C
Experiment: NCI In Vivo Anticancer Drug Screen. Data for tumor model L1210 Leukemia (intraperitoneal) in B6D2F1 (BDF1) mice
Settings: endpoint: mean survival time, higher = longer survival
Outline: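 Read-out is survival time, reported as the treated-group measurement over the vehicle-control measurement.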

[1] = dose: 100.0 mg/kg/injection, schedule: Q04DX002 (ip), vehicle: Klucel (hydroxypropylcellulose) (HPC)
[2] = dose: 100.0 mg/kg/injection, schedule: Q01DX001 (ip), vehicle: carboxymethylcellulose (CMC)
[3] = dose: 400.0 mg/kg/injection, schedule: Q01DX001 (ip), vehicle: carboxymethylcellulose (CMC)
[4] = dose: 50.0 mg/kg/injection, schedule: Q04DX003 (ip), vehicle: saline
[5] = dose: 100.0 mg/kg/injection, schedule: Q04DX003 (ip), vehicle: saline
[6] = dose: 50.0 mg/kg/injection, schedule: Q01DX009 (ip), vehicle: saline
[7] = dose: 100.0 mg/kg/injection, schedule: Q01DX001 (ip), vehicle: saline
[8] = dose: 100.0 mg/kg/injection, schedule: Q01DX009 (ip), vehicle: saline
[9] = dose: 200.0 mg/kg/injection, schedule: Q01DX001 (ip), vehicle: saline
[10] = dose: 200.0 mg/kg/injection, schedule: Q01DX009 (ip), vehicle: saline
[11] = dose: 400.0 mg/kg/injection, schedule: Q01DX001 (ip), vehicle: saline
[12] = dose: 100.0 mg/kg/injection, schedule: Q01DX009 (ip), vehicle: saline with Tween-80
[13] = dose: 200.0 mg/kg/injection, schedule: Q04DX002 (ip), vehicle: Klucel (hydroxypropylcellulose) (HPC)
[14] = dose: 400.0 mg/kg/injection, schedule: Q04DX002 (ip), vehicle: Klucel (hydroxypropylcellulose) (HPC)

Measured: T/C

C=C1CC(c2ccc(S(=O)(=O)N(CC)CC)cc2)OC1=O (stereo not given)
inactive: dose: 25.0 mg/kg/injection, schedule: Q01DX005 (ip), vehicle: Klucel (hydroxypropylcellulose) (HPC) 89 % of control | dose: 25.0 mg/kg/injection, schedule: Q01DX009 (ip), vehicle: Klucel (hydroxypropylcellulose) (HPC) 98 % of control | dose: 25.0 mg/kg/injection, schedule: Q04DX002 (ip), vehicle: Klucel (hydroxypropylcellulose) (HPC) 96 % of control | dose: 50.0 mg/kg/injection, schedule: Q01DX005 (ip), vehicle: Klucel (hydroxypropylcellulose) (HPC) 92 % of control | dose: 50.0 mg/kg/injection, schedule: Q01DX009 (ip), vehicle: Klucel (hydroxypropylcellulose) (HPC) 94 % of control | dose: 50.0 mg/kg/injection, schedule: Q04DX002 (ip), vehicle: Klucel (hydroxypropylcellulose) (HPC) 96 % of control | dose: 100.0 mg/kg/injection, schedule: Q01DX005 (ip), vehicle: Klucel (hydroxypropylcellulose) (HPC) 96 % of control | dose: 100.0 mg/kg/injection, schedule: Q01DX009 (ip), vehicle: Klucel (hydroxypropylcellulose) (HPC) 98 % of control | [1] 96 % of control

O=[N+]([O-])c1ccc(-c2cccc3ccccc23)c([N+](=O)[O-])c1
inactive: [2] 96 % of control | [3] 91 % of control

CC1(C)N=C(N)N=C(N)N1c1cccc([N+](=O)[O-])c1
inactive: dose: 25.0 mg/kg/injection, schedule: Q04DX002 (ip), vehicle: saline 93 % of control | dose: 25.0 mg/kg/injection, schedule: Q04DX003 (ip), vehicle: saline 106 % of control | dose: 50.0 mg/kg/injection, schedule: Q04DX002 (ip), vehicle: saline 96 % of control | [4] 105 % of control | dose: 100.0 mg/kg/injection, schedule: Q04DX002 (ip), vehicle: saline 91 % of control | [5] 98 % of control and 111 % of control

CCCN(CCC)C(=O)/C(=C\c1ccccc1)NC(=O)c1ccccc1
inactive: [2] 93 % of control | dose: 200.0 mg/kg/injection, schedule: Q01DX001 (ip), vehicle: carboxymethylcellulose (CMC) 93 % of control | [3] 98 % of control

CN1CC2C3C=CC(C3)C2C1 (stereo not given)
inactive: dose: 75.0 mg/kg/injection, schedule: Q01DX001 (ip), vehicle: other 96 % of control | dose: 150.0 mg/kg/injection, schedule: Q01DX001 (ip), vehicle: other 88 % of control

COc1cccc(N=Nc2c(N)nc(N)[nH]c2=O)c1
inactive: [6] 90 % of control | [4] 101 % of control | [7] 104 % of control | [8] 92 % of control | [5] 98 % of control | [9] 107 % of control | [10] 95 % of control | dose: 200.0 mg/kg/injection, schedule: Q04DX003 (ip), vehicle: saline 102 % of control | [11] 104 % of control

CC(C)(O)C(=O)NC/C=C/c1ccccc1
inactive: dose: 25.0 mg/kg/injection, schedule: Q01DX009 (ip), vehicle: saline with Tween-80 93 % of control | dose: 50.0 mg/kg/injection, schedule: Q01DX009 (ip), vehicle: saline with Tween-80 93 % of control | [12] 93 % of control

CCCCC/C=C\C/C=C/CCCCCCCC1=NC(C)(CO)CO1 (stereo not given)
inactive: [7] 92 % of control | [9] 98 % of control | [11] 98 % of control

CC(=O)CSc1sc(C(C)=O)c(N)c1C#N
inactive: [12] 91 % of control | dose: 200.0 mg/kg/injection, schedule: Q01DX009 (ip), vehicle: saline with Tween-80 91 % of control | dose: 400.0 mg/kg/injection, schedule: Q01DX009 (ip), vehicle: saline with Tween-80 90 % of control

Clc1ccc(N=Nc2ccccn2)cc1
inactive: [1] 101 % of control | [13] 96 % of control | [14] 93 % of control

CCOC(=O)CNc1ccc(Cl)c(C)c1
inactive: [1] 111 % of control | [13] 107 % of control | [14] 111 % of control

CC(C)OCCSP(SCCOC(C)C)SCCOC(C)C
inactive: dose: 25.0 mg/kg/injection, schedule: Q04DX003 (ip), vehicle: saline with Tween-80 96 % of control | dose: 50.0 mg/kg/injection, schedule: Q04DX003 (ip), vehicle: saline with Tween-80 107 % of control | dose: 100.0 mg/kg/injection, schedule: Q04DX003 (ip), vehicle: saline with Tween-80 96 % of control

OCC1SC(O)C(O)C(O)C1O (stereo not given)
inactive: [6] 102 % of control | dose: 50.0 mg/kg/injection, schedule: Q01DX009 (oral), vehicle: saline 100 % of control | [8] 102 % of control | dose: 100.0 mg/kg/injection, schedule: Q01DX009 (oral), vehicle: saline 102 % of control | [10] 112 % of control | dose: 200.0 mg/kg/injection, schedule: Q01DX009 (oral), vehicle: saline 98 % of control | dose: 400.0 mg/kg/injection, schedule: Q01DX009 (ip), vehicle: saline 109 % of control | dose: 400.0 mg/kg/injection, schedule: Q01DX009 (oral), vehicle: saline 96 % of control

CC1c2ccccc2C(C)c2c1cc(F)c1ccccc21 (stereo not given)
inactive: dose: 100.0 mg/kg/injection, schedule: Q04DX002 (ip), vehicle: other 115 % of control | dose: 200.0 mg/kg/injection, schedule: Q04DX002 (ip), vehicle: other 93 % of control | dose: 400.0 mg/kg/injection, schedule: Q04DX002 (ip), vehicle: other 101 % of control

c1ccc(C(C2CCCCC2)(C2CCCCC2)C(c2ccccc2)(C2CCCCC2)C2CCCCC2)cc1
inactive: dose: 25.0 mg/kg/injection, schedule: Q04DX003 (ip), vehicle: Klucel (hydroxypropylcellulose) (HPC) 105 % of control | dose: 50.0 mg/kg/injection, schedule: Q04DX003 (ip), vehicle: Klucel (hydroxypropylcellulose) (HPC) 111 % of control | dose: 100.0 mg/kg/injection, schedule: Q04DX003 (ip), vehicle: Klucel (hydroxypropylcellulose) (HPC) 92 % of control and 93 % of control | dose: 200.0 mg/kg/injection, schedule: Q04DX003 (ip), vehicle: Klucel (hydroxypropylcellulose) (HPC) 93 % of control | dose: 400.0 mg/kg/injection, schedule: Q04DX003 (ip), vehicle: Klucel (hydroxypropylcellulose) (HPC) 87 % of control
